Laboratory results as given in patent US20060241177A1, “Novel compounds, pharmaceutical compositions containing same, and methods of use for same” (priority 2002, published 2006).
In brackets after ≈: the same amount, converted by molar mass. Read-outs that look alike come from different tables or passages of the source.

Tests used:
Type in all cases: cell-based
[1] = test system: MCF-7 human breast cancer cells; experiment: Crystal violet cell growth assay; details: MCF7, MCF-7 cells, 72 hours, read-out: Cr. Violet (IC50)
Procedure: Crystal Violet Cell Growth Assay
The crystal violet assay measures cell growth but not cytotoxicity. This assay employs crystal violet staining of fixed cells in 96-well plates with subsequent solubilization and measurement of OD490 on a spectrophotometer. The OD490 corresponds to cell growth per unit time measured. Cells are treated with the compounds of interest or vehicle controls and IC50 for each compound is computed.
To measure the cytotoxicity of specific compounds against cancer cells, 5×10^4 MCF-7 human breast cancer cells, obtained from the American Type Culture Collection are plated per well in 24 well plates in DMEM medium with 10% fetal bovine serum, penicillin, and streptomycin. Following overnight culture at 37° C. and 5% CO2, the compounds to be tested, dissolved in DMSO, are added to the wells in 1 μl volume at the following concentrations: 50, 40, 30, 20, and 10 μg/ml in triplicate. Additional concentrations are tested if required. 1 μl of DMSO is added to triplicate wells as the vehicle control. C75 is run at 10, and 5 μg/ml in triplicate as positive controls.
After 72 hours of incubation, cells are stained with 0.5 ml of Crystal Violet stain (0.5% in 25% methanol) in each well. After 10 minutes, wells are rinsed, air dried, and then solubilized with 0.5 ml 10% sodium dodecylsulfate with shaking for 2 hours. Following transfer of 100 μl from each well to a 96-well plate, plates are read at OD490 on a Molecular Devices SpectraMax Plus Spectrophotometer Average OD490 values are computed using SOFTmax Pro Software (Molecular Devices) and IC50 values are determined by linear regression analysis using Prism version 3.02 (Graph Pad Software, San Diego).

[2] = test system: MCF-7 human breast cancer cells; experiment: [14C]acetate incorporation into total lipids (fatty acid synthesis in whole cells); details: for IC50: Homo sapiens, MCF7, MCF-7 cells; for 14C (IC50): MCF-7 cells
Procedure: Measurement of [^14C]Acetate Incorporation into Total Lipids and Determination of IC50 of Compounds
This assay measures the incorporation of [^14C] acetate into total lipids and is a measure of fatty acid synthesis pathway activity in vitro. It is utilized to measure inhibition of fatty acid synthesis in vitro.
MCF-7 human breast cancer cells cultured as above, are plated at 5×10^4 cells per well in 24-well plates. Following overnight incubation, the compounds to be tested, solubilized in DMSO, are added at 5, 10, and 20 μg/ml in triplicate, with lower concentrations tested if necessary. DMSO is added to triplicate wells for a vehicle control. C75 is run at 5 and 10 μg/ml in triplicate as positive controls. After 4 hours of incubation, 0.25 μCi of [^14C]acetate (10 μl volume) is added to each well.
After 2 hours of additional incubation, medium is aspirated from the wells and 800 μl of chloroform:methanol (2:1) and 700 μl of 4 mM MgCl2 is added to each well. Contents of each well are transferred to 1.5 ml Eppendorf tubes, and spun at full-speed for 2 minutes in a high-speed Eppendorf Microcentrifuge 5415D. After removal of the aqueous (upper) layer, an additional 700 μl of chloroform:methanol (2:1) and 500 μl of 4 mM MgCl2 are added to each tube and then centrifuged for 1 minutes as above. The aqueous layer is removed with a Pasteur pipette and discarded. An additional 400 μl of chloroform:methanol (2:1) and 200 μl of 4 mM MgCl2 are added to each tube, then centrifuged and aqueous layer is discarded. The lower (organic) phase is transferred into a scintillation vial and dried at 40° C. under N2 gas. Once dried, 3 ml of scintillant (APB #NBC5104) is added and vials are counted for ^14C. The Beckman Scintillation counter calculates the average cpm values for triplicates.
The IC50 for the compounds is defined as the concentration of drug leading to a 50% reduction in [^14C] acetate incorporation into lipids compared to controls. This is determined by plotting the average cpm for each inhibitor concentration tested, performing linear regression and computing the best-fit line, r^2 values, and 95% confidence intervals. The average cpm values are computed by the Beckman scintillation counter (model LS6500) for each compound concentration. Computation of linear regression, best-fit line, r^2, and 95% confidence intervals are calculated using Prism Version 3.0 (Graph Pad Software).

[3] = test system: Escherichia coli (ATCC #25922); experiment: Broth microdilution MIC; details: 24 hours; for MIC: Escherichia coli, ATCC25922
Procedure: (§1) A broth microdilution assay is used to assess the antimicrobial activity of the compounds. Compounds are tested at twofold serial dilutions, and the concentration that inhibits visible growth (OD600 at 10% of control) is defined as the MIC. Microorganisms tested include Staphylococcus aureus (ATCC #29213), Enterococcus faecalis (ATCC #29212), Pseudomonas aeruginosa (ATCC #27853), and Escherichia coli (ATCC #25922). The assay is performed in two growth media, Mueller Hinton Broth and Trypticase Soy Broth.
(§2) A blood (Tsoy/5% sheep blood) agar plate is inoculated from frozen stocks maintained in T soy broth containing 10% glycerol and incubated overnight at 37° C. Colonies are suspended in sterile broth so that the turbidity matches the turbidity of a 0.5 McFarland standard. The inoculum is diluted 1:10 in sterile broth (Mueller Hinton or Trypticase soy) and 195 ul is dispensed per well of a 96-well plate. The compounds to be tested, dissolved in DMSO, are added to the wells in 5 ul volume at the following concentrations: 25, 12.5, 6.25, 3.125, 1.56 and 0.78 ug/ml in duplicate. Additional concentrations are tested if required. 5 ul of DMSO added to duplicate wells are the vehicle control. Serial dilutions of positive control compounds, vancomycin (E. faecalis and S. aureus) and tobramycin (E. coli and P. aeruginosa), are included in each rum
(§3) After 24 hours of incubation at 37° C., plates are read at OD600 on a Molecular Devices SpectraMax Plus Spectrophotometer. Average OD600 values are computed using SOFTmax Pro Software (Molecular Devices) and MIC values are determined by linear regression analysis using Prism version 3.02 (Graph Pad Software, San Diego). The MIC is defined as the concentration of compound required to produce an OD600 reading equivalent to 10% of the vehicle control reading.

[4] = test system: Pseudomonas aeruginosa (ATCC #27853); experiment: Broth microdilution MIC; details: 24 hours; for MIC: Pseudomonas aeruginosa, ATCC27853
Procedure: as §1, §2, §3

[5] = test system: Enterococcus faecalis (ATCC #29212); experiment: Broth microdilution MIC; details: 24 hours; for MIC: Enterococcus faecalis, ATCC29212
Procedure: as §1, §2, §3

[6] = test system: Staphylococcus aureus (ATCC #29213); experiment: Broth microdilution MIC; details: 24 hours; for MIC: Staphylococcus aureus, ATCC29213
Procedure: as §1, §2, §3

[7] = Mueller Hinton Broth, read-out: EF/MH (MIC)
[8] = Trypticase Soy Broth, read-out: EF/Tsoy (MIC)
[9] = Mueller Hinton Broth, read-out: SA/MH (MIC)
[10] = Trypticase Soy Broth, read-out: SA/Tsoy (MIC)
[11] = Trypticase Soy Broth, read-out: Ecoli/Tsoy (MIC)
[12] = Mueller Hinton Broth, read-out: PSAE/MH (MIC)
[13] = Trypticase Soy Broth, read-out: PSAE/Tsoy (MIC)

IC50 [1] | Ecoli/Tsoy (MIC) ([3]; Trypticase Soy Broth) | 14C (IC50) [2] | MIC [4, 12] | MIC [4, 13] | MIC ([3]; Mueller Hinton Broth, read-out: Ecoli/MH (MIC)) | SA/Tsoy (MIC) ([6]; Trypticase Soy Broth) | EF/Tsoy (MIC) ([5]; Trypticase Soy Broth) | EF/MH (MIC) ([5]; Mueller Hinton Broth) | Compound | IC50 [2] | Ecoli/MH (MIC) ([3]; Mueller Hinton Broth) | PSAE/MH (MIC) ([4]; Mueller Hinton Broth) | PSAE/Tsoy (MIC) ([4]; Trypticase Soy Broth) | MIC [5, 7] | MIC [5, 8] | MIC [6, 9] | MIC [6, 10] | MIC [3, 11]
> 50 µg/mL |  |  |  |  |  |  |  |  | CCCCCCCCC1OC(=O)[C@@H](C)[C@H]1C(=O)O (stereo partly drawn) | 31 µg/mL (≈ 121 µM) |  |  |  |  |  |  |  | 
49 µg/mL (≈ 191 µM) | Neg | Neg |  |  |  |  |  |  | CCCCCCCCC1OC(=O)[C@H](C)[C@H]1C(=O)O (stereo partly drawn) |  | Neg | Neg | Neg | 109 µg/mL (≈ 425 µM) | 94 µg/mL (≈ 367 µM) | 43 µg/mL (≈ 168 µM) | 60 µg/mL (≈ 234 µM) | 
23.7 µg/mL (≈ 80.8 µM) |  | Neg (stim) | 280 µg/mL (≈ 954 µM) | 137 µg/mL (≈ 467 µM) |  |  |  |  | C=CCNC(=O)C1=C(C)C(=O)O[C@H]1CCCCCCCC |  | Neg |  |  | 115 µg/mL (≈ 392 µM) | 203 µg/mL (≈ 692 µM) | 79 µg/mL (≈ 269 µM) | 87 µg/mL (≈ 297 µM) | 199 µg/mL (≈ 678 µM)
43.9 ± 4.8 µg/mL (≈ 149 µM) | Neg |  |  |  | 108 µg/mL (≈ 366 µM) | Neg |  |  | C=CCNC(=O)[C@H]1[C@H](CCCCCCCC)OC(=O)[C@H]1C (racemic) | 25.7 µg/mL (≈ 87 µM) |  | Neg | Neg | 91 µg/mL (≈ 308 µM) | 114 µg/mL (≈ 386 µM) | 107 µg/mL (≈ 362 µM) |  | 
30 µg/mL (≈ 102 µM) |  | Neg | 218 µg/mL (≈ 738 µM) | 160 µg/mL (≈ 542 µM) |  |  | Neg |  | C=CCNC(=O)[C@H]1[C@H](CCCCCCCC)OC(=O)[C@@H]1C (racemic) |  | Neg |  |  | 84 µg/mL (≈ 284 µM) |  | 80 µg/mL (≈ 271 µM) | 193 µg/mL (≈ 653 µM) | 155 µg/mL (≈ 525 µM)
2.2 ± 1 µg/mL (≈ 7.4 µM) | Neg |  |  |  |  |  |  | Neg | C=C1C(=O)O[C@@H](CCCCCCCC)[C@@H]1C(=O)NCCO (racemic) | 2.3 ± 1.3 µg/mL (≈ 7.73 µM) | Neg | Neg | Neg |  | 77 µg/mL (≈ 259 µM) | 44 µg/mL (≈ 148 µM) | 48 µg/mL (≈ 161 µM) | 

Compound | IC50 [1] | Ecoli/Tsoy (MIC) ([3]; Trypticase Soy Broth) | 14C (IC50) [2] | MIC [4, 12] | MIC [4, 13] | MIC ([3]; Mueller Hinton Broth, read-out: Ecoli/MH (MIC)) | SA/Tsoy (MIC) ([6]; Trypticase Soy Broth) | EF/Tsoy (MIC) ([5]; Trypticase Soy Broth) | EF/MH (MIC) ([5]; Mueller Hinton Broth) | IC50 [2] | Ecoli/MH (MIC) ([3]; Mueller Hinton Broth) | PSAE/MH (MIC) ([4]; Mueller Hinton Broth) | PSAE/Tsoy (MIC) ([4]; Trypticase Soy Broth) | MIC [5, 7] | MIC [5, 8] | MIC [6, 9] | MIC [6, 10] | MIC [3, 11]
C=CCNC(=O)[C@@H]1C(=C)C(=O)O[C@H]1CCCCCCCC (racemic) | 0.9 ± 0.5 µg/mL (≈ 3.07 µM) |  |  |  |  |  |  |  |  | 0.75 ± 0.4 µg/mL (≈ 2.56 µM) |  | Neg | Neg | 36 µg/mL (≈ 123 µM) | 25 µg/mL (≈ 85.2 µM) | 9.1 ± 1.9 µg/mL (≈ 31 µM) | 12 ± 0.5 µg/mL (≈ 40.9 µM) | 
C=CCNC(=O)[C@@H]1C(=C)C(=O)O[C@H]1CCCCCC (racemic) | 0.85 ± 0.08 µg/mL (≈ 3.2 µM) | Neg |  |  |  |  |  |  |  | 3.3 µg/mL (≈ 12.4 µM) | Neg | Neg | Neg | 103 µg/mL (≈ 388 µM) | 38 µg/mL (≈ 143 µM) | 49 µg/mL (≈ 185 µM) | 47 µg/mL (≈ 177 µM) | 
C=CCNC(=O)[C@@H]1C(=C)C(=O)O[C@H]1CCCC (racemic) | 2.2 ± 0.3 µg/mL (≈ 9.27 µM) | Neg |  |  |  |  |  |  |  | 1.8 ± 0.3 µg/mL (≈ 7.59 µM) | Neg | Neg | Neg | 190 µg/mL (≈ 801 µM) | 67 µg/mL (≈ 282 µM) | 65 µg/mL (≈ 274 µM) | 96 µg/mL (≈ 405 µM) | 
C=C1C(=O)O[C@@H](CCCCCCCC)[C@@H]1C(=O)NCC(=O)OC (racemic) | 1.3 ± 0.09 µg/mL (≈ 4 µM) |  |  |  |  |  |  |  |  | 1.1 ± 0.03 µg/mL (≈ 3.38 µM) | Neg | Neg | Neg | 80 µg/mL (≈ 246 µM) | 245 µg/mL (≈ 753 µM) | 4.3 µg/mL (≈ 13.2 µM) | 26 µg/mL (≈ 79.9 µM) | 275 µg/mL (≈ 845 µM)
C=C1C(=O)O[C@@H](CCCCCCCC)[C@@H]1C(=O)NCC(=O)O (racemic) | > 50 µg/mL |  |  |  |  |  |  |  |  |  | Neg | Neg | Neg | 219 µg/mL (≈ 703 µM) | 215 µg/mL (≈ 690 µM) | 72 µg/mL (≈ 231 µM) | 52 µg/mL (≈ 167 µM) | 235 µg/mL (≈ 755 µM)
